Data on three compounds can be found in PMC10295666 (Bioengineering, 2023).

Positions of bridges follow the written chain, without caps; N, C: chain ends. Residues, ends and D or L forms follow the SMILES beside them. No end group written: not given here.

In data set [1] the test system is normal human liver cell line 7701. Put plainly: Toxicity on normal liver cells. Conditions: QSG-7701 cells. The class given is cell-based. The procedure: Normal human liver cells QSG-7701 and Hepatocellular Carcinoma Cell lines 7721, Huh7, MHCC97H, MHCC97L, and HepG2 were all obtained from the Institute of Biomedical Sciences, Jinan University. All cells were cultured in DMEM medium (Gibco, Grand Island, NE, USA) supplemented with 10% fetal bovine serum (Gibco, Grand Island, NE, USA). The cell lines were incubated in a humidified atmosphere with 5% CO2 at 37 °C.
Cells in the logarithmic growth phase with good viability were seeded into 96-well plates at a density of 2500 cells per well and incubated for 24 h at 37 °C with 5% CO2. The old medium was removed, and the cells were starved with DMEM medium containing 0.5% FBS for 24 h. Peptides were diluted with 0.5% starved medium to different concentrations and added to each well with the same volume. The cells were then incubated for an additional 48 h at 37 °C. After removing the medium, 100 μL of CCK-8 working solution was added to each well, and the plate was incubated for 1 h at 37 °C with 5% CO2. Finally, the absorbance at 450 nm of each well was measured using a multifunctional microplate reader. Cell viability (%) was equal to (Asample − Ablank)/(Acontrol − Ablank) × 100%. […]
Cells in the logarithmic growth phase were seeded at a density of 1000 cells per well in 6-well plates and cultured for 24 h. […] After air-drying the plate, the colonies were photographed and counted.

Data set [2] deals with MHCC97L transplant tumors. Put plainly: MHCC97L subcutaneous xenograft model. As to conditions: 25 mg/kg tail vein injection, monitored every two days for 14 days, n = 4.
Protocol: Male BALB/c-nude mice were purchased from Guangdong GemPharmatech Co., Ltd. These mice were fed with food and purified water at room temperature in the SPF laboratory. MHCC97L cells (0.1 mL of physiological saline containing 1 × 10^7 cells) were subcutaneously injected into the armpit of 5-week-old male BALB/c-nude mice. Tumor volume and weight were measured every 2 days, and tumor volume was calculated using the following formula: (short axis)^2 × (long axis)/2. When the tumor volume reached approximately 50 mm^3, these mice were weighed and randomly divided into 3 groups (n = 4): the model group, the SAIF group (25 mg/kg), and the ctSAIF group (25 mg/kg). SAIF and ctSAIF were administered via tail vein injection at a dose of 25 mg/kg. The peptide was dissolved in saline solution to 5 mg/mL, and the dosage volume of each mouse was calculated using the following formula: (25 mg/kg × body weight)/(5 mg/mL). After 14 days of treatment, the mice were sacrificed, and the tumors were collected for histopathological examination.
A short description of data set [3]: In vitro serum stability assay of peptides (HPLC-UV / LC-MS). The class given is in vitro ADME. Conditions: human; serum from healthy individuals mixed with peptide 9:1, peptide 1 mg/mL, 37 °C, 0-1440 min, 10% TFA precipitation, HPLC-UV (C18) peak area. As to the method: The serum obtained from healthy individuals was centrifuged at a low speed and mixed with peptides at a ratio of 9:1 to achieve a peptide concentration of 1 mg/mL. The peptide–serum mixture was then incubated at 37 °C for different periods. After reaching the pre-determined time point (0, 10, 20, 30, 60, 120, 240, 480, 960, or 1440 min), pure trifluoroacetic acid was added to each sample to reach a final concentration of 10%. The mixture was then vortexed and centrifuged for 10 min at 13,000 rpm, and the supernatant (10 μL) was collected and stored in HPLC vials for analysis.
HPLC-UV analysis was performed using a C18 analytical column (Thermo Acclaim300 C18 LC ColuMns, 4.6 mm diameter, 150 mm length, Catalog #: 060266) and a Waters ACQUITY Arc Bio instrument, following the method shown in Table 1. The target peak was determined based on the retention time of pure peptides, and on this basis, detect peptides were degraded at different times and their peak area recorded to generate a degradation curve. The degradation rate of peptides was equal to (Areasample − Areablank)/(Areacontrol − Areablank) × 100%. The area of the blank was equal to the peak area detected after mixing peptides with ultrapure water at the same initial concentration. The signal-to-noise ratio of all collected data was greater than 10. […]

The nature of data set [4]: serum obtained from healthy individuals. Conditions: 37 °C, up to 1440 min.

As for `CSCC[C@@H]1NC(=O)[C@H](C)NC(=O)[C@H](CC(=O)O)NC(=O)[C@H](C)NC(=O)[C@H](CO)NC(=O)[C@H](CCSC)NC(=O)[C@H](CCCNC(=N)N)NC(=O)[C@H](C(C)C)NC(=O)[C@H](CCCNC(=N)N)NC(=O)[C@H](CCCCN)NC(=O)[C@H](CC(C)C)NC(=O)[C@@H]2CCCN2C(=O)[C@@H]2CCCN2C(=O)[C@H](CCCNC(=N)N)NC(=O)[C@H](CCCCN)NC(=O)[C@H](Cc2ccccc2)NC(=O)[C@H](CCCCN)NC(=O)CNC(=O)[C@H](CCCCN)NC(=O)[C@@H](N)CSSC[C@@H](C(=O)O)NC(=O)[C@H](CC(C)C)NC1=O` [ctSAIF] (H-CKGKFKRPPLKRVRMSADAMLC-OH; disulfide 1-22), the “toxicity on normal human liver cell line 7701” value in data set [1] is given as “no significant toxicity”. Further, in data set [2], the “weight of nude mice during treatment” value is “no significant changes”. In addition, the half-life (in general, how long it takes for the measured level to halve) at 1 mg/mL in data set [3] was approximately 360 min.

Regarding KEIDDLNLKVFDLKGKFKRPPLKRVRMSADAML, the fragment found entry in data set [4] was “tSAIF (KGKFKRPPLKRVRMSADAML), 2 h”. Turning to “KEIDDLNLKVFDLKGKFKRPPLKRVRMSADAML [SAIF]”, the “toxicity on normal human liver cell line 7701” value in data set [1] is listed as “no significant toxicity”.
